Calls of active or inactive are those of the source.
Tests used:
[1] = molecular target: Photoreceptor-specific nuclear receptor (Homo sapiens, UniProt Q9Y5X4); assay type: functional, cell-based;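 note: CHO-S cells with Gal4-NCOR and VP16-NR2E3 two-hybrid luciferase reporter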
[2] = molecular target: T1, COUP transcription factor 2 (Homo sapiens, UniProt P24468); test: Luminescence-based cell-based high throughput dose response assay to identify inhibitors of COUP-TFII (NR2F2).; assay type: functional;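 note: HEK293 cells transiently cotransfected with COUP-TFII expression vector and reporter; luciferase reporter luminescence driven by COUP-TFII from the pX2-168 reporter plasmid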
T1 sequence (P24468 whole entry): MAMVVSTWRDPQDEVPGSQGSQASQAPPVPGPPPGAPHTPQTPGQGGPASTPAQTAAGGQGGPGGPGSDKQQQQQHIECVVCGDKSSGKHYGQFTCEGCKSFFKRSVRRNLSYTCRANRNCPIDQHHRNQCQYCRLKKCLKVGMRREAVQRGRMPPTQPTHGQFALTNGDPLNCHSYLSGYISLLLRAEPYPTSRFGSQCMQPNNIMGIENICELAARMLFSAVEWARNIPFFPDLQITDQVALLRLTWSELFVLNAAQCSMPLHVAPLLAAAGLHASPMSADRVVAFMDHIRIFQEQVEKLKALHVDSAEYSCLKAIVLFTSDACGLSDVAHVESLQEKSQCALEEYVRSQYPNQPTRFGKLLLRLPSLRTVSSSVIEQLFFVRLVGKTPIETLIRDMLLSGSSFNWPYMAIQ

[3] = HeLa cell cytotoxicity, dose response, cytotoxicity control for MgcRacGAP inhibitor project (AID 624300); assay type: functional
[4] = molecular target: T2, Probable nicotinate-nucleotide adenylyltransferase (Staphylococcus aureus (strain N315), UniProt P65502); assay type: functional, Staphylococcus aureus subsp. aureus N315;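 for IC50 Mean: confirmatory dose-response retesting of NadD inhibitor hits first found in an ultra-high-throughput screen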
T2 sequence (P65502 whole entry): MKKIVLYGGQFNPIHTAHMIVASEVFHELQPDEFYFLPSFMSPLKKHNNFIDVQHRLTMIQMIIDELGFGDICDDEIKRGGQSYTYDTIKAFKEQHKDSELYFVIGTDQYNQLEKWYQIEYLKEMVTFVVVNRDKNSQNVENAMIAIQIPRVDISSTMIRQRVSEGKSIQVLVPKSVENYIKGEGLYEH

[5] = molecular target: T3, Small ubiquitin-related modifier 1 (Homo sapiens, UniProt P63165); test: inhibitors of SUMO1 peptide binding, dose response, biochemical, fluorescence polarization, uHTS hits (AID 624382); assay type: functional; details: read-out: IC50_Mean
T3 sequence (P63165 whole entry): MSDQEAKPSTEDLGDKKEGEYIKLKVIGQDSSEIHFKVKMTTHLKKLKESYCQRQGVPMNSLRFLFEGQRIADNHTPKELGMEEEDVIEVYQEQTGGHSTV

[6] = molecular target: T2, Probable nicotinate-nucleotide adenylyltransferase; assay type: functional, Staphylococcus aureus subsp. aureus N315; details: read-out: IC50_Mean
[7] = molecular target: T4, Rac GTPase-activating protein 1 (Homo sapiens, UniProt Q9H0H5); test: MgcRacGAP GTPase-activating activity inhibitors, confirmation, biochemical, ADP Hunter fluorescence, primary and confirmatory (AID 624330); assay type: functional
T4 sequence (Q9H0H5 whole entry): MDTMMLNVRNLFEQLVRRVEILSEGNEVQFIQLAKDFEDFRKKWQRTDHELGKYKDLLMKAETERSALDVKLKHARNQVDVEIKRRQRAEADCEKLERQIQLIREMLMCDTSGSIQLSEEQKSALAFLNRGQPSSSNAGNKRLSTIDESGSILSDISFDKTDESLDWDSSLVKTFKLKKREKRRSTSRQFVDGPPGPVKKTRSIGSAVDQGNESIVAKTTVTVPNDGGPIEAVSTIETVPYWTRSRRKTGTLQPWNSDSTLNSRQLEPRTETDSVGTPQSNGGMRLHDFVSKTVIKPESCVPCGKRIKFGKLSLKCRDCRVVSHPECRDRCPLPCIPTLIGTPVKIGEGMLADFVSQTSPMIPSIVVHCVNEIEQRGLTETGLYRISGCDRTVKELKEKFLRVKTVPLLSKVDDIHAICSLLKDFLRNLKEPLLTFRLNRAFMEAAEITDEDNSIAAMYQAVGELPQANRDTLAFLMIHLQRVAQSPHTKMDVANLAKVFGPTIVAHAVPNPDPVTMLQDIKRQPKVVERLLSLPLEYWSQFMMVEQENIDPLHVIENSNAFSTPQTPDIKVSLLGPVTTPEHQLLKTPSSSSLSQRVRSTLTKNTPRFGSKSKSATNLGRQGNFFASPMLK

[8] = molecular target: T3, Small ubiquitin-related modifier 1; test: inhibitors of SUMO1 partner interactions, dose response, biochemical, FRET (AID 624383); assay type: functional; details: read-out: IC50_Mean
[9] = molecular target: T5, Aryl hydrocarbon receptor (Homo sapiens, UniProt P35869); details: Potency;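 note: confirmatory quantitative high-throughput screen measuring activation of the AhR signaling pathway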
T5 sequence (P35869 whole entry): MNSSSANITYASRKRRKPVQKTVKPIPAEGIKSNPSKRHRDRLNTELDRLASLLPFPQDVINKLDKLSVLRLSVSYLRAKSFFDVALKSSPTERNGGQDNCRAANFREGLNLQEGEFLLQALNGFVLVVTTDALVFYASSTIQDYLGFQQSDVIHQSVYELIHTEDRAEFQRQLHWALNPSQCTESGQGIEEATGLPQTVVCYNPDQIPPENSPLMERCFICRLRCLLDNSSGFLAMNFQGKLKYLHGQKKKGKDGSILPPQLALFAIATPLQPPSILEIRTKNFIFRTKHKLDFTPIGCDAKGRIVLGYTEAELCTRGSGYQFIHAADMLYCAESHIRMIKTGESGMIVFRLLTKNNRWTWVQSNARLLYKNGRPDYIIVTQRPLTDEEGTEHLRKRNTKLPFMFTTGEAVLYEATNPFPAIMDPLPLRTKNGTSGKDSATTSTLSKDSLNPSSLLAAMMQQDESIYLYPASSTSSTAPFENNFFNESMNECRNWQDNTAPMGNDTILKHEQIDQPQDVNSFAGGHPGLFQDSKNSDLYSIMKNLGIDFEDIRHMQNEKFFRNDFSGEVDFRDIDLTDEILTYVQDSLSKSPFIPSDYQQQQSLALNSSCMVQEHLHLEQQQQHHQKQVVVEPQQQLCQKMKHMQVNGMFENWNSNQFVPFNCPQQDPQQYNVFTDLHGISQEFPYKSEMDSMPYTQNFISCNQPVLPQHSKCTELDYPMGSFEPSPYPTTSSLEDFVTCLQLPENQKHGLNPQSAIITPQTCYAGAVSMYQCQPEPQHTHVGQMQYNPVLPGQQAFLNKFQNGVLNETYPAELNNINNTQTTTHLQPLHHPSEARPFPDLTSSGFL

[10] = Fluorescence-based cell-based high throughput dose response assay for inhibitors of the interaction of nucleotide-binding oligomerization domain containing 2 (NOD2) and the receptor-interacting serine-threonine kinase 2 (RIPK2).; assay type: functional; details: Homo sapiens
[11] = molecular target: Beta Lactamase (Pseudomonas aeruginosa, UniProt Q932Y6); test: beta-lactamase reporter inhibitor potency, dose response, artefact control for NOD2-RIPK2 interaction inhibitor project, BLA reporter cells, FRET fluorescence (AID 651552); assay type: functional, cell-based
Sequence of Beta Lactamase (Q932Y6 whole entry): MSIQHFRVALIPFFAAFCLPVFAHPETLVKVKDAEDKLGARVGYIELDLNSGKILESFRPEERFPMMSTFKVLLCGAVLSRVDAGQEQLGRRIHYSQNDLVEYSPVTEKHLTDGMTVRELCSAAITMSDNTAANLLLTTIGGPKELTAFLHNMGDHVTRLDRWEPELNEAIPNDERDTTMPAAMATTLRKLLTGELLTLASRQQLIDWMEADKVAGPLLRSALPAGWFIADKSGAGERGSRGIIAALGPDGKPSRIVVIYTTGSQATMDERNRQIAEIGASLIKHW

Sequence of Photoreceptor-specific nuclear receptor (Q9Y5X4 whole entry, the tested form may be a part): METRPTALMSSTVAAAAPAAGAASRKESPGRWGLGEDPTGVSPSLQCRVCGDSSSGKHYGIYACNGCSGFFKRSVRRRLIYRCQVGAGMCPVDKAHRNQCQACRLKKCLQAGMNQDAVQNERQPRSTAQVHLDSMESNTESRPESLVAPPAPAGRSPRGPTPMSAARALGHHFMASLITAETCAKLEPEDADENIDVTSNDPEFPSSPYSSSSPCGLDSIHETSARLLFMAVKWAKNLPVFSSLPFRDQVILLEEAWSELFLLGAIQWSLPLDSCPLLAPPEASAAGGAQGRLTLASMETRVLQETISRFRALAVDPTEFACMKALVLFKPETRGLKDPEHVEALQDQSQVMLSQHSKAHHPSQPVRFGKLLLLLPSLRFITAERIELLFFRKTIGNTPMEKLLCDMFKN

c1ccc(C(Cc2nc(-c3ccncc3)no2)c2ccccc2)cc1
IC50 [1]: 5.57 µM (active)
IC50 [2]: 14 µM (inactive)

Cc1cc(NCCCCCCCNc2cc(C)nc3cc([N+](=O)[O-])ccc23)c2ccc([N+](=O)[O-])cc2n1
CC50 [3]: 37.8 µM (active)
IC50 [4]: 15.2 µM (active)
IC50 [5]: > 66.6 µM (inactive)
IC50 [6]: 23.2 µM (active)
IC50 [7]: 26.1 µM (active)
IC50 [8]: 2.12 µM (active)

Nc1c(Cl)c(Cl)c(Cl)c(Cl)c1Cl
AC50 [9]: 44.7 µM (inconclusive)

CCOC(=O)[C@]12Cc3cc(Cl)ccc3[C@H]1N(C(C)C)C(=O)c1ccccc12
IC50 [10]: 2.21 µM (active)
IC50 [11]: 45.2 µM (inactive)

O=[N+]([O-])c1cc(C(F)(F)F)c(Cl)c([N+](=O)[O-])c1Nc1ncc(C(F)(F)F)cc1Cl [FLUAZINAM]
AC50 [9]: 31.6 µM (inconclusive)
